Source: ChEMBL document CHEMBL4265876, “Natural Products with Heteroatom-Rich Ring Systems” (J Nat Prod, 2017)
≈ marks a conversion by molar mass, not a printed value. Blank lines part the entries; values can stand above or below the compound they belong to.

Assays:
[1] = tested on: T-cell; assay: Inhibition of ConA-induced cell proliferation of BALB/c mouse T-lymphocytes assessed as reduction in [3H]thymidine incorporation incubated for 48 hrs by beta scintillation counting method; assay type: functional
[2] = tested on: SF-268; assay: Cytotoxicity against human SF268 cells assessed as cell killing at 50 uM relative to control; assay type: functional
[3] = biological target: Sodium-dependent dopamine transporter (Homo sapiens) (UniProt Q01959); assay: Inhibition of dopamine transporter (unknown origin) at 10 uM
[4] = biological target: C-X-C chemokine receptor type 4 (Rattus norvegicus) (UniProt O08565); assay: Antagonist activity at CXCR4 in rat GH4C1 cells assessed as inhibition of CXCL12-induced DNA synthesis at 10 uM after 72 hrs by BrdU incorporation assay; assay type: functional, cell-based
[5] = tested on: 3T3-L1; assay: Cytotoxicity against mouse 3T3L1 cells assessed as decrease in cell viability; assay type: cell-based
[6] = biological target: Sodium-dependent noradrenaline transporter (Homo sapiens) (UniProt P23975); assay: Inhibition of norepinephrine transporter (unknown origin) at 10 uM
[7] = biological target: C-X-C chemokine receptor type 4 (Rattus norvegicus) (UniProt O08565); assay: Antagonist activity at CXCR4 in rat GH4C1 cells assessed as inhibition of CXCL12-induced cell migration at 0.1 uM after 72 hrs by BrdU incorporation assay; assay type: functional, cell-based
[8] = biological target: Sodium-dependent serotonin transporter (Homo sapiens) (UniProt P31645); assay: Inhibition of serotonin transporter (unknown origin) at 10 uM
[9] = biological target: Mu-type opioid receptor (Homo sapiens) (UniProt P35372); assay: Inhibition of mu opioid receptor (unknown origin) at 10 uM
[10] = tested on: C6; assay: Cytotoxicity against rat C6 cells assessed as decrease in cell viability; assay type: functional, cell-based
[11] = tested on: HeLa; assay: Cytotoxicity against human HeLa cells assessed as decrease in cell viability; assay type: functional, cell-based
[12] = tested on: V79; assay: Cytotoxicity against chinese hamster V79 cells; assay type: cell-based; conditions: Cricetulus griseus
[13] = tested on: L1210; assay: Cytotoxicity against mouse L1210 cells; assay type: functional, cell-based
[14] = tested on: Micrococcus luteus; assay: Antibacterial activity against Micrococcus luteus ATCC 9341 after 24 hrs by serial dilution method; assay type: functional; conditions: ATCC 9341, 24 h
[15] = tested on: Bacillus subtilis; assay: Antibacterial activity against Bacillus subtilis ATCC 6051 after 24 hrs by serial dilution method; assay type: functional; conditions: ATCC 6051, 24 h
[16] = tested on: Pseudomonas aeruginosa; assay: Antibacterial activity against Pseudomonas aeruginosa ATCC 10145 after 24 hrs by serial dilution method; assay type: functional; conditions: ATCC 10145, 24 h
[17] = tested on: Escherichia coli; assay: Antibacterial activity against Escherichia coli ATCC 10536 after 24 hrs by serial dilution method; assay type: functional; conditions: ATCC 10536, 24 h
[18] = tested on: Staphylococcus aureus; assay: Antibacterial activity against Staphylococcus aureus ATCC 6538 after 24 hrs by serial dilution method; assay type: functional; conditions: ATCC 6538, 24 h
[19] = Antioxidant activity of the compound; assay type: functional
[20] = Inhibition of protein kinase A (unknown origin); parameters: species or system Homo sapiens
[21] = tested on: A549; assay: Cytotoxicity against human A549 cells assessed as decrease in cell viability after 48 hrs by MTT assay; assay type: functional, cell-based; conditions: A549, 48 h
[22] = tested on: K562; assay: Cytotoxicity against human K562 cells assessed as decrease in cell viability after 48 hrs by MTT assay; assay type: functional, cell-based; conditions: K562, 48 h
[23] = tested on: L5178Y; assay: Cytotoxicity against mouse L5178Y cells by MTT assay; assay type: functional, cell-based
[24] = tested on: HGC-27; assay: Growth inhibition of human HGC27 cells after 48 hrs by MTT assay; assay type: functional, cell-based; conditions: HGC-27, 48 h
[25] = tested on: Escherichia coli; assay: Antibacterial activity against Escherichia coli assessed as inhibition zone at 50 ug/disk; assay type: functional; conditions: read-out: IZ
[26] = tested on: Staphylococcus aureus; assay: Antibacterial activity against Staphylococcus aureus assessed as inhibition zone at 50 ug/disk; assay type: functional; conditions: read-out: IZ

Sequence of C-X-C chemokine receptor type 4 (Rattus norvegicus) (O08565 whole entry): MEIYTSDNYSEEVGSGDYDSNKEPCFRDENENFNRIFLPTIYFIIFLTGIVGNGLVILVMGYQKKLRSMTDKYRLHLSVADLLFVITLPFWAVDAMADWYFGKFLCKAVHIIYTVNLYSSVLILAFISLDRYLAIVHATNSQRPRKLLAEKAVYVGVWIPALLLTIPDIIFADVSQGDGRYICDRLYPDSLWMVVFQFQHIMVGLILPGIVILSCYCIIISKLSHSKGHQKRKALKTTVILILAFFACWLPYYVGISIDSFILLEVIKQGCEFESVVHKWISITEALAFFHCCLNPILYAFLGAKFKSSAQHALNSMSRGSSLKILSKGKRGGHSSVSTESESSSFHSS
Sequence of Sodium-dependent noradrenaline transporter (Homo sapiens) (P23975 whole entry): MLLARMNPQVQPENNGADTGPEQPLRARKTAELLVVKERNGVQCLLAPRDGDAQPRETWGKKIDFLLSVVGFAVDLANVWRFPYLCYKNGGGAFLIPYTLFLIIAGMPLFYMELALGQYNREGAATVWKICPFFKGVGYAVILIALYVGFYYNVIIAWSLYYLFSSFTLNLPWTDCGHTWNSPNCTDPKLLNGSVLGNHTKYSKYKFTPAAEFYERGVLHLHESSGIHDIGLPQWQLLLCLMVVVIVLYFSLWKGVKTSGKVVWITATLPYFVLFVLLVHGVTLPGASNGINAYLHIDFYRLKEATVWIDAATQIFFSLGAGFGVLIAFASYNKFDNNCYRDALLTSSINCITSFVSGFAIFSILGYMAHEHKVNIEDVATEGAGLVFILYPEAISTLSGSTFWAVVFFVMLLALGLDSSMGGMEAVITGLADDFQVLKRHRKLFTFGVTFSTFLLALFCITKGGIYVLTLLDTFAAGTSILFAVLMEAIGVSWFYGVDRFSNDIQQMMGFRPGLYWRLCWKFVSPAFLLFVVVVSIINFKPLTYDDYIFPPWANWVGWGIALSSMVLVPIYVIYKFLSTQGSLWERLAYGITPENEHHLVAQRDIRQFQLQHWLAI
Sequence of Sodium-dependent serotonin transporter (Homo sapiens) (P31645 whole entry, looked up): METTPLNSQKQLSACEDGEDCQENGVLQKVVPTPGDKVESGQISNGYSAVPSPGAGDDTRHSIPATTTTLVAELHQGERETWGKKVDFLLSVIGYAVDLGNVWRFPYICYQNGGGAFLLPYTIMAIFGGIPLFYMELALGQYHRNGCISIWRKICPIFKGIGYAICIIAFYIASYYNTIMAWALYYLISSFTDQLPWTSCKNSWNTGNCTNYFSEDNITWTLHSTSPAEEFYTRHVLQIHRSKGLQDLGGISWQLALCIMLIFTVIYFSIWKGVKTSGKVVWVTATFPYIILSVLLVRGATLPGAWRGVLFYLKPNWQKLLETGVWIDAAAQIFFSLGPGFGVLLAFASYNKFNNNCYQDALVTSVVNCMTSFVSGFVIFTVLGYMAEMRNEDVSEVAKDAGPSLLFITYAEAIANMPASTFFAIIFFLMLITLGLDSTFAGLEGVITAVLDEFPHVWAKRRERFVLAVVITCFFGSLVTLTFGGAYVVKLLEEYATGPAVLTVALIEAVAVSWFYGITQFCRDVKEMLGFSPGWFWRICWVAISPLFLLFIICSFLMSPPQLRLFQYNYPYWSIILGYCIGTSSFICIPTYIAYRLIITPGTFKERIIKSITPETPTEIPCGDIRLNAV
Sequence of Sodium-dependent dopamine transporter (Homo sapiens) (Q01959 whole entry): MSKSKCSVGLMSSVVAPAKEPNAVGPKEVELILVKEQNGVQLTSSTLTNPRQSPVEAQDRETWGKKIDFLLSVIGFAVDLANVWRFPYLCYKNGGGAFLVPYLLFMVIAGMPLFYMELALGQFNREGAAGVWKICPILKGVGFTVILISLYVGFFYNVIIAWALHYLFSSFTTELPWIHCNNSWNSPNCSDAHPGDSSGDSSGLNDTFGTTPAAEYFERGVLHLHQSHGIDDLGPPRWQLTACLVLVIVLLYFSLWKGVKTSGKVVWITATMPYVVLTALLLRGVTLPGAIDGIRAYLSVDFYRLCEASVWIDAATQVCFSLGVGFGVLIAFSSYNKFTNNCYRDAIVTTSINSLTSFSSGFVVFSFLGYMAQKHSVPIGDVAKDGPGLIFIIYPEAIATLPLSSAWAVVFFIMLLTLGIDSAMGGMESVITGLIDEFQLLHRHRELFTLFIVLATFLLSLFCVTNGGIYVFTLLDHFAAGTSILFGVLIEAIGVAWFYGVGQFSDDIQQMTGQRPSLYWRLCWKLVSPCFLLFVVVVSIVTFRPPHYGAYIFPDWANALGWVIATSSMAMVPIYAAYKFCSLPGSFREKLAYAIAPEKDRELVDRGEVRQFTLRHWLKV
Sequence of Mu-type opioid receptor (Homo sapiens) (P35372 whole entry): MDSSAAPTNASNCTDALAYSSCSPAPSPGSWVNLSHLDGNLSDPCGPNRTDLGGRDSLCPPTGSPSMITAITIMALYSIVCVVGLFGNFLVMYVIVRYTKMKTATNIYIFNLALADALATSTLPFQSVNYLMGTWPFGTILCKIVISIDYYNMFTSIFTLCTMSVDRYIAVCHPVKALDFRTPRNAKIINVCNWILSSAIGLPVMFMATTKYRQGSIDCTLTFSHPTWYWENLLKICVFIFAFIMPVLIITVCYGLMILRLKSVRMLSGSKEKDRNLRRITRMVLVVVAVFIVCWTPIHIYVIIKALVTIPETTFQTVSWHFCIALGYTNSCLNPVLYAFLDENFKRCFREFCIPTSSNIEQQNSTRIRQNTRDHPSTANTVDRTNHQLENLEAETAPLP

SMILES: COC1=C[C@@H](C)O[C@@H](O[C@H]2CC[C@@]3(C)C(=CC[C@@H]4[C@@H]3CC[C@@]3(C)[C@H]4CC[C@]3(O)[C@H](C)O[C@H]3C[C@H]4OCO[C@@]5(C[C@@H](OC)[C@H](O[C@H]6C[C@H](O)[C@H](O[C@H]7C[C@@H](O)[C@H](O[C@H]8C[C@H](OC)[C@H](O[C@@H]9O[C@H](C)[C@H](O)[C@H](OC)[C@H]9OC(C)=O)[C@@H](C)O8)[C@@H](C)O7)[C@@H](C)O6)[C@@H](C)O5)O[C@@H]4[C@@H](C)O3)C2)C1=O
IC50 [1]: 290 to 1970 nM

SMILES: CO[C@H]1C[C@H](O[C@@H]2[C@@H](C)O[C@@]3(C[C@H]2OC)OCO[C@@H]2C[C@H](O[C@@H](C)[C@@]4(O)CC[C@H]5[C@@H]6CC=C7C[C@@H](O)CC[C@]7(C)[C@H]6CC[C@@]54C)O[C@H](C)[C@H]2O3)O[C@H](C)[C@H]1O[C@H]1C[C@@H](O)[C@H](O[C@H]2C[C@H](OC)[C@H](O[C@H]3C[C@@H](OC)[C@H](O)[C@@H](C)O3)[C@@H](C)O2)[C@@H](C)O1
IC50 [1]: 290 to 1970 nM

SMILES: COC1=C[C@@H](C)O[C@@H](O[C@H]2CC[C@@]3(C)C(=CC[C@@H]4[C@@H]3CC[C@@]3(C)[C@H]4CC[C@]3(O)[C@H](C)O[C@H]3C[C@H]4OCO[C@@]5(C[C@@H](OC)[C@H](O[C@H]6C[C@H](OC)[C@H](O[C@H]7C[C@@H](O)[C@H](O[C@H]8C[C@H](OC)[C@H](O[C@H]9C[C@H](O)[C@H](OC(C)=O)[C@@H](C)O9)[C@@H](C)O8)[C@@H](C)O7)[C@@H](C)O6)[C@@H](C)O5)O[C@@H]4[C@@H](C)O3)C2)C1=O
IC50 [1]: 290 to 1970 nM

SMILES: CC[C@H](C)C1=C(O)[N@@+]2([O-])Oc3ccc(-c4c(O)c(O)c(-c5ccc(OC(C)=O)cc5)c(OC(C)=O)c4OC(C)=O)cc3O[C@@]2([C@@H](C)CC)C(=O)N1O
Activity [2]: 95%

inhibition [3]: 101%
inhibition [4]: 50%
inhibition [6]: 68%
inhibition [7]: 100%
inhibition [8]: 22%
inhibition [9]: 103%
SMILES: N=C(N)NCCCCCNc1noc(Cc2c[nH]c3cc(Br)ccc23)n1
IC50 [5]: 140 nM
IC50 [10]: 1500 nM
IC50 [11]: 1500 nM

SMILES: COc1cc(CCN(C)C)c2c(c1O)SSC(C)S2 (stereo not drawn)
IC50 [12]: 140 nM
IC50 [13]: 700 nM

SMILES: COc1cc(CCN(C)C)c2c(c1O)SSSSS2 [ISOLISSOCLINOTOXIN B]
IC50 [12]: 250 nM
IC50 [13]: 640 nM

SMILES: CC[C@H](C)C1=C(OC(C)=O)[N@+]2([O-])Oc3ccc(-c4c(O)c(O)c(-c5ccc(OC(C)=O)cc5)c(OC(C)=O)c4OC(C)=O)cc3O[C@@]2([C@@H](C)CC)C(=O)N1O
Activity [2]: 93%

MIC [14]: 1 to 8 µg/mL (≈ 3.73 to 29.8 µM)
MIC [15]: 1 to 8 µg/mL (≈ 3.73 to 29.8 µM)
MIC [16]: 1 to 8 µg/mL (≈ 3.73 to 29.8 µM)
MIC [17]: 1 to 8 µg/mL (≈ 3.73 to 29.8 µM)
MIC [18]: 1 to 8 µg/mL (≈ 3.73 to 29.8 µM)
SMILES: Cc1cc(=O)n2nc(CC(=O)c3ccccc3)nc2[nH]1 [ESSRAMYCIN]

IC50 [19]: 25000 nM
SMILES: CC[C@H](C)C1=C(O)[N@+]2([O-])Oc3ccc(-c4c(O)c(O)c(-c5ccc(O)cc5)c(OC(C)=O)c4OC(C)=O)cc3O[C@@]2([C@@H](C)CC)C(=O)N1OC

SMILES: NCCc1cc(O)c(O)c2c1SSSSS2
IC50 [20]: > 25 µg/mL

SMILES: CO[C@H]1C[C@H](O[C@H]2[C@@H](OC)C[C@H](O[C@H]3[C@H](O)C[C@H](O[C@H]4[C@@H](OC)C[C@H](O[C@@H]5[C@@H](C)O[C@@]6(C[C@H]5OC)OCO[C@@H]5C[C@H](O[C@@H](C)[C@@]7(O)CC[C@H]8[C@@H]9CC=C%10C[C@@H](O)CC[C@]%10(C)[C@H]9CC[C@@]87C)O[C@H](C)[C@H]5O6)O[C@@H]4C)O[C@@H]3C)O[C@@H]2C)O[C@H](C)[C@H]1OC(C)=O
IC50 [1]: 290 to 1970 nM

SMILES: CC1=C(c2ccccc2)N(C)NC(=O)N1
IC50 [21]: 21800 nM
IC50 [22]: 66900 nM

SMILES: Nc1nsc(C(=O)c2ccc(O)cc2)n1
IC50 [23]: 410 nM

IC50 [19]: 29100 nM
SMILES: CC[C@H](C)C1=C(O)[N@@+]2([O-])Oc3ccc(-c4c(O)c(O)c(-c5ccc(O)cc5)c(OC(C)=O)c4OC(C)=O)cc3O[C@@]2([C@@H](C)CC)C(=O)N1OC

SMILES: Oc1ccc(Cc2nsc(Cc3ccc(O)cc3)n2)cc1
IC50 [24]: 172000 nM

SMILES: COc1cc(CCN(C)C)c2sc3c(OC)c(OC)c(SC)c(CCN(C)C)c3ssc2c1O [LISSOCLIBADIN 5]
zone of inhibition at 50 µg/disc [25]: 11.6 mm
zone of inhibition at 50 µg/disc [26]: 15.8 mm
